Several values for one entry are separate records, joined by “and”; a condition that tells them apart may be missing. Identical values can stand only once. Like-named read-outs stand apart in the source and are kept apart here. Marks after values point to notes of the source that are not given here. Values belong to the molecule of their own block, whether it stands above or below them.
Legend:
[1] = system: APP/PS1 mouse model of AD; set-up: method as in Woodling et al., Brain 2016; conditions: three month treatment given one month before the appearance of deficits, ref Woodling et al., Brain 2016; cited from earlier work
Casp1 = system: Casp1; set-up: method as in PMID 30254377; conditions: in vitro Casp1; cited from earlier work
[2] = cited from earlier work
[3] = set-up: method as in PMID 30254377; conditions: 50 mg/kg dose of VX-765, carotid infusion, J20 mice; cited from earlier work
[4] = VX-765 and VRT-043198 pharmacokinetics (LC-MS/MS) in plasma, whole brain and CSF after a single IP dose of VX-765
APP23 mice = system: APP23 mice; set-up: method as in PMID 16095884; conditions: 2-month pre-symptomatic treatment, 3-week WO; cited from earlier work
APP/PS1 = system: APP/PS1; set-up: method as in PMID 29191754; conditions: 1-month pre-treatment, 3-week WO; cited from earlier work
[5] = CSF, 0.50 h after single IP 50 mg/kg VX-765
[6] = CSF, 1 h after single IP 50 mg/kg VX-765
[7] = CSF, 3 h after single IP 50 mg/kg VX-765, some blood contamination during CSF collection
[8] = CSF, 8 h after single IP 50 mg/kg VX-765, some blood contamination during CSF collection
[9] = plasma, 0.25 h after single IP 50 mg/kg VX-765
[10] = plasma, 0.50 h after single IP 50 mg/kg VX-765
[11] = plasma, 1 h after single IP 50 mg/kg VX-765
[12] = plasma, 3 h after single IP 50 mg/kg VX-765
[13] = plasma, 6 h after single IP 50 mg/kg VX-765
[14] = plasma, 8 h after single IP 50 mg/kg VX-765
[15] = plasma, single IP 50 mg/kg VX-765
[16] = whole brain, 0.25 h after single IP 50 mg/kg VX-765
[17] = whole brain, 0.50 h after single IP 50 mg/kg VX-765
[18] = whole brain, 1 h after single IP 50 mg/kg VX-765, NQ = not quantifiable, LLOQ 0.025 μM VX-765, 0.049 μM VRT-043198
[19] = whole brain, single IP 50 mg/kg VX-765

SMILES: CC(C)Cc1ccc(C(C)C(=O)O)cc1 (stereo not shown) [ibuprofen]
cognitive impairment on NOR [1]: prevention of cognitive impairment

CSF concentration, Mouse 2 ([4]; CSF, 0.25 h after single IP 50 mg/kg VX-765): 3.11 µM | CSF concentration, Mean ([4]; CSF, 0.25 h after single IP 50 mg/kg VX-765, n = 2): 42.9 µM | CSF concentration, Mouse 1 ([4]; CSF, 0.25 h after single IP 50 mg/kg VX-765, some blood contamination during CSF collection): 82.6* μM | CSF concentration, Mouse 1 [4, 5]: 0.44 µM | CSF concentration, Mouse 2 [4, 5]: 7.00 µM | CSF concentration, Mean ([4]; CSF, 0.50 h after single IP 50 mg/kg VX-765, n = 2): 3.72 µM | CSF concentration, Mouse 1 [4, 6]: 0.43 µM | CSF concentration, Mouse 2 [4, 6]: 0.58 µM | CSF concentration, Mean ([4]; CSF, 1 h after single IP 50 mg/kg VX-765, n = 2): 0.50 µM | CSF concentration, Mean ([4]; CSF, 3 h after single IP 50 mg/kg VX-765, n = 2): 0.28 µM | CSF concentration, Mouse 1 [4, 7]: 0.42* μM | CSF concentration, Mouse 2 [4, 7]: 0.15* μM | CSF concentration, Mean ([4]; CSF, 6 h after single IP 50 mg/kg VX-765): 0.21 µM | CSF concentration, Mouse 2 ([4]; CSF, 6 h after single IP 50 mg/kg VX-765, some blood contamination during CSF collection): 0.21* μM | CSF concentration, Mean ([4]; CSF, 8 h after single IP 50 mg/kg VX-765, n = 2): 0.36 µM | CSF concentration, Mouse 1 [4, 8]: 0.13* μM | CSF concentration, Mouse 2 [4, 8]: 0.60* μM | MRTinf in CSF, Mean ([4]; CSF, single IP 50 mg/kg VX-765): 48.6 min | MRTinf in CSF, Mouse 1 ([4]; CSF, single IP 50 mg/kg VX-765): 48.6 min | Tmax in CSF, Mean ([4]; CSF, single IP 50 mg/kg VX-765): 22.8 min | Tmax in CSF, Mouse 1 ([4]; CSF, single IP 50 mg/kg VX-765): 15 min | Tmax in CSF, Mouse 2 ([4]; CSF, single IP 50 mg/kg VX-765): 30 min | CSF concentration relative to respective in vitro Casp1 IC50 ([4]; CSF, within 0.25 h post-injection, single IP 50 mg/kg VX-765): 4000 fold | brain concentration relative to respective in vitro Casp1 IC50 ([4]; brain, within 0.25 h post-injection, single IP 50 mg/kg VX-765): 170 fold | plasma concentration, Mouse 1 [4, 9]: 201800 nM | plasma concentration, Mouse 2 [4, 9]: 180400 nM | plasma concentration, Mean ([4]; plasma, 0.25 h after single IP 50 mg/kg VX-765, n = 2): 191100 nM | plasma concentration, Mouse 1 [4, 10]: 338100 nM | plasma concentration, Mouse 2 [4, 10]: 104100 nM | plasma concentration, Mean ([4]; plasma, 0.50 h after single IP 50 mg/kg VX-765, n = 2): 221100 nM | plasma concentration, Mouse 1 [4, 11]: 24400 nM | plasma concentration, Mouse 2 [4, 11]: 51000 nM | plasma concentration, Mean ([4]; plasma, 1 h after single IP 50 mg/kg VX-765, n = 2): 37700 nM | plasma concentration, Mouse 1 [4, 12]: 1160 nM | plasma concentration, Mouse 2 [4, 12]: 780 nM | plasma concentration, Mean ([4]; plasma, 3 h after single IP 50 mg/kg VX-765, n = 2): 970 nM | plasma concentration, Mouse 1 [4, 13]: 460 nM | plasma concentration, Mouse 2 [4, 13]: 300 nM | plasma concentration, Mean ([4]; plasma, 6 h after single IP 50 mg/kg VX-765, n = 2): 380 nM | plasma concentration, Mouse 1 [4, 14]: 350 nM | plasma concentration, Mouse 2 [4, 14]: 240 nM | plasma concentration, Mean ([4]; plasma, 8 h after single IP 50 mg/kg VX-765, n = 2): 300 nM | MRTinf in plasma, Mouse 1 [4, 15]: 40.2 min | MRTinf in plasma, Mouse 2 [4, 15]: 46.8 min | Tmax in plasma, Mouse 1 [4, 15]: 30 min | Tmax in plasma, Mouse 2 [4, 15]: 15 min | plasma concentration relative to respective in vitro Casp1 IC50 ([4]; plasma, within 0.25 h post-injection, single IP 50 mg/kg VX-765): 20,000 fold | Cmax ([4]; read-out: Cmax in CSF, Mean, CSF, single IP 50 mg/kg VX-765): 44800 nM | Cmax ([4]; read-out: Cmax in CSF, Mouse 1, CSF, single IP 50 mg/kg VX-765): 82600 nM | Cmax ([4]; read-out: Cmax in CSF, Mouse 2, CSF, single IP 50 mg/kg VX-765): 7000 nM | Cmax ([4]; read-out: Cmax in brain, Mean, whole brain, single IP 50 mg/kg VX-765): 1700 nM | Cmax ([4]; read-out: Cmax in brain, Mouse 1, whole brain, single IP 50 mg/kg VX-765): 2540 nM | Cmax ([4]; read-out: Cmax in brain, Mouse 2, whole brain, single IP 50 mg/kg VX-765): 850 nM | Cmax ([4]; read-out: Cmax in plasma, Mean, plasma, single IP 50 mg/kg VX-765): 259000 nM | Cmax ([4]; read-out: Cmax in plasma, Mouse 1, plasma, single IP 50 mg/kg VX-765): 338000 nM | Cmax ([4]; read-out: Cmax in plasma, Mouse 2, plasma, single IP 50 mg/kg VX-765): 180000 nM | brain concentration, Mouse 1 [4, 16]: 2540 nM | brain concentration, Mouse 2 [4, 16]: 850 nM | brain concentration, Mean ([4]; whole brain, 0.25 h after single IP 50 mg/kg VX-765, n = 2): 1700 nM | brain concentration, Mouse 1 [4, 17]: 590 nM | brain concentration, Mouse 2 [4, 17]: 650 nM | brain concentration, Mean ([4]; whole brain, 0.50 h after single IP 50 mg/kg VX-765, n = 2): 620 nM | brain concentration, Mean ([4]; whole brain, 1 h after single IP 50 mg/kg VX-765): 240 nM | brain concentration, Mouse 1 [4, 18]: 210 nM | brain concentration, Mouse 2 [4, 18]: 270 nM | brain concentration, Mean ([4]; whole brain, 3 h after single IP 50 mg/kg VX-765): 80 nM | brain concentration, Mouse 1 ([4]; whole brain, 3 h after single IP 50 mg/kg VX-765, NQ = not quantifiable, LLOQ 0.025 μM VX-765, 0.049 μM VRT-043198): 80 nM | Half-life (t1/2) in brain, Mouse 1 [4, 19]: 59.4 min | MRTinf in brain, Mean [4, 19]: 52.2 min | MRTinf in brain, Mouse 1 [4, 19]: 58.8 min | MRTinf in brain, Mouse 2 [4, 19]: 45.6 min | Tmax in brain, Mean [4, 19]: 15 min | Tmax in brain, Mouse 1 [4, 19]: 15 min | Tmax in brain, Mouse 2 [4, 19]: 15 min | Half-life (t1/2) in brain, Mean ([4]; whole brain, single IP 50 mg/kg VX-765, 50 mg/kg): 60 min and 59.4 min
SMILES: CC(C)(C)[C@H](NC(=O)c1ccc(N)c(Cl)c1)C(=O)N1CCC[C@H]1C(=O)N[C@H](C=O)CC(=O)O [VRT-043198]
IC50 (Casp1): 9.91 nM | in vitro half-life (t1/2) [2]: ~180 min | concentration in the J20 brain [3]: 2000 to 5000 nM

SMILES: COc1ccc2c3c1O[C@H]1C[C@@H](O)C=C[C@@]31CCN(C)C2 [galantamine]
Morris water maze acquisition and spatial memory (APP23 mice): improved acquisition and spatial memory in the Morris water maze

SMILES: CC12CC3CC(C)(C1)CC(N)(C3)C2 [memantine]
Morris water maze acquisition and spatial memory (APP23 mice): improved acquisition and spatial memory in the Morris water maze

SMILES: CN1CCN(CCOc2cc(OC3CCOCC3)c3c(Nc4c(Cl)ccc5c4OCO5)ncnc3c2)CC1 [saracatinib]
NOR performance (APP/PS1): continued improved performance in NOR

From article PMC7486940, “Pre-symptomatic Caspase-1 inhibitor delays cognitive decline in a mouse model of Alzheimer disease and aging” (Nature Communications, 2020)
